Measurements taken from ChEMBL document CHEMBL1201862, “PubChem BioAssay data set” (2004).
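Growth conditions: 96-well plates. Treatment: test compound, 48 hours, 5 concentrations. Analysis: linear interpolation between bracketing concentrations; unreached endpoints set to highest concentration. Here, GI50 denotes the concentration required for 50% inhibition of growth.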 Activity calls are given as the source filed them. Rule as the data show it: active = GI50 up to about 1.1 µM and inactive = higher.

Columns and labels:
Test in all cases: DTP human tumour cell line panel, 48 h
[1] = tested on: PC-3
[2] = tested on: HT-29
[3] = tested on: HCT-116
[4] = tested on: TK-10
[5] = tested on: U-251
[6] = tested on: NCI-H226
[7] = tested on: SF-268
[8] = tested on: SK-MEL-28
[9] = tested on: HOP-92
[10] = tested on: DU-145
[11] = tested on: IGROV-1
[12] = tested on: RXF 393
[13] = tested on: COLO 205
[14] = tested on: MCF7
[15] = tested on: SF-539
[16] = tested on: SW-620
[17] = tested on: OVCAR-3
[18] = tested on: SK-MEL-5
[19] = tested on: CAKI-1
[20] = tested on: MOLT-4
[21] = tested on: T47D
[22] = tested on: A498
[23] = tested on: MDA-N
[24] = tested on: UACC-257
[25] = tested on: LOX IMVI
[26] = tested on: UO-31
[27] = tested on: RPMI-8226
[28] = tested on: A549
[29] = tested on: OVCAR-4
[30] = tested on: HCC 2998
[31] = tested on: SNB-75
[32] = tested on: 786-0
[33] = tested on: HCT-15
[34] = tested on: NCI/ADR-RES
[35] = tested on: SF-295
[36] = tested on: UACC-62
[37] = tested on: NCI-H23
[38] = tested on: HL-60
[39] = tested on: ACHN
[40] = tested on: SN12C
[41] = tested on: SK-OV-3
[42] = tested on: MDA-MB-231
[43] = tested on: SK-MEL-2
[44] = tested on: KM12
[45] = tested on: OVCAR-8
[46] = tested on: Malme-3M
[47] = tested on: NCI-H460
[48] = tested on: CCRF-CEM
[49] = tested on: EKVX
[50] = tested on: M14
[51] = tested on: HOP-62
[52] = tested on: MDA-MB-435
[53] = tested on: Hs-578T
[54] = tested on: BT-549
[55] = tested on: SNB-19
[56] = tested on: OVCAR-5

Measured: GI50

Cc1nc2c(O)nc3ccccc3c2o1
inactive: [1] > 100 µM | [2] > 100 µM | [3] > 100 µM | [4] > 100 µM | [5] > 100 µM | [6] > 100 µM | [7] > 100 µM | [8] > 100 µM | [9] > 100 µM | [10] > 100 µM | [11] 32 µM | [12] > 100 µM | [13] > 100 µM | [14] > 100 µM | [15] > 100 µM | [16] > 100 µM | [17] > 100 µM | [18] > 100 µM | [19] > 100 µM | [20] > 10 µM | [21] > 100 µM | [22] > 100 µM | [23] > 100 µM | [24] > 100 µM | [25] > 100 µM | [26] > 100 µM | [27] > 100 µM | [28] > 100 µM | [29] > 100 µM | [30] > 100 µM | [31] > 100 µM | [32] > 100 µM | [34] > 100 µM | [35] > 100 µM | [36] > 100 µM | [37] > 100 µM | [38] > 100 µM | [39] > 100 µM | [40] > 100 µM | [41] > 100 µM | [42] > 100 µM | [43] > 100 µM | [44] > 100 µM | [45] > 100 µM | [46] > 100 µM | [47] > 100 µM | [48] > 100 µM | [49] 48.9 µM | [50] > 100 µM | [51] > 100 µM | [52] > 100 µM | [53] > 100 µM | [54] > 100 µM | [55] > 100 µM | [56] > 100 µM
> 100 µM: [33]
